From patent publication US10457662B2, “Substituted amides for treating and preventing cancer” (The Regents of the University of Michigan, priority 2015, dated 2019) come the findings set out here.

In general, IC50 refers to the concentration at which inhibition is half-maximal.

Assay [1] relates to three pancreatic cancer cell lines. In words: MTT assay, three pancreatic cancer cell lines. In kind it is cell-based. The note with it: read-out: Mark: IC50 lower than 1 μM in at least one cell line, Table 1. In general terms: Tetrazolium dyes change colour on reduction, which living cells bring about.
The next assay relates to BxPC-3. The assay can be described thus: MTT assay, BxPC-3. The format is cell-based. The note with it: Homo sapiens. On the procedure: (§1) Experiments conducted during the course of developing embodiments for the present invention involved performance of a phenotypic screen of a library of 20,000 small-molecules representing five million compounds. […] Subsequently, a lead optimization campaign was performed to synthesize a series of close analogs. Initially, the 50 analogs were tested in three pancreatic cancer cell lines using MTT assay (Table 1).
(§2) For in vitro studies, compounds were dissolved in DMSO at 10 mM as stock solutions and stored at −20° C. For in vivo studies, QN523 was dissolved in a vehicle containing 5% DMSO, 35% propylene glycol and 60% saline, and administered at 100 uL through intraperitoneal injections.

For another assay, the system named is Panc-1. The assay can be described thus: MTT assay, Panc-1. In kind it is cell-based. The note with it: Homo sapiens. On the procedure: as §1, §2
The next assay deals with MiaPaCa-2. In words: MTT assay, MiaPaCa-2. The following applies: Homo sapiens. The procedure: Cells were treated with QN523 for 1, 4, 8, 24, 48, 72 h and left in culture in fresh media. MTT assay was performed 72 h after initiation of treatment. Data points represent Mean±SD from three independent experiments.
as §1, §2

Assay [2] deals with WIPI1, GABARAPL1 and LC3B. The assay can be described thus: Western blotting of autophagy related proteins in MiaPaCa-2. The note with it: for activation of autophagy: at their IC50 values. In kind it is cell-based. The procedure:
FIG. 12: QN523 induces protein expression of autophagy markers dose-dependently.
Significant induction of the protein was detected at concentrations as low as 0.25 μM.
(§3) In addition, primary antibodies for LC3B, survivin, cyclin D1, Stat3 and phosphorylated Stat3 (Y705) are from Cell Signaling Technology.
For orientation: A western blot detects proteins with antibodies after separation by electrophoresis.

Another assay concerns GRP78, CHOP, ATF3, GDF15. The assay can be described thus: Western blotting of stress responsive proteins in MiaPaCa-2. The format is cell-based. The procedure: FIG. 11: QN523 induces protein expression of stress markers dose-dependently.
This example describes the validation of biomarkers GDF15, ATF3, DDIT3, HSPA5, WIPI1, GABARAPL1 and MAP1LC3B in pancreatic cancer cell lines. To validate the findings from bioinformatics analysis basing on Bru-seq experiments, the proposed biomarkers were further tested in pancreatic cancer cell lines. […] However, the potency of Sulindac is much lower than that of QN523, with IC50 of 300 μM in MiaPaCa-2.
as §3

[3] abbreviates: BXPC-3, MTT assay, Mean ± SD, three independent experiments, read-out: IC50 Values BxPC-3.
Where [4] appears, read: PANC-1, MTT assay, Mean ± SD, three independent experiments, read-out: IC50 Values Panc-1.
Setting [5] is: MIA PaCa-2, read-out: IC50 Values MiaPaCa-2.

Read-outs that look alike come from different tables or passages of the source.

Consider `COc1cc(NC(=O)c2cnccn2)c2ncccc2c1` [QN107], for which the IC50 in assay [1] was less than 1000 nM; in the assay on BxPC-3 (setting [3]) it was 5530 ± 1180 nM; in the assay on Panc-1 (setting [4]), 770 ± 210 nM; in the assay with MiaPaCa-2 (setting [5]), 280 ± 40 nM.

Turning to `Cc1cnc(C(=O)Nc2cc(OCCN3CCOCC3)cc3cccnc23)cn1` [QN138, 5-Methyl-pyrazine-2-carboxylic acid [6-(2-morpholin-4-yl-ethoxy)-quinolin-8-yl]-amide], the IC50 in assay [1] is less than 1000 nM; with BxPC-3 (setting [3]) it was 2000 ± 870 nM; with Panc-1 (setting [4]), 3500 ± 500 nM; in the assay on MiaPaCa-2 (setting [5]) it was 730 ± 150 nM.

In the case of `O=C(Nc1cc(OCCF)cc2cccnc12)c1cnccn1` [QN144, Pyrazine-2-carboxylic acid [6-(2-fluoro-ethoxy)-quinolin-8-yl]amide], the IC50 in assay [1] is less than 1000 nM; with BxPC-3 (setting [3]), 4330 ± 760 nM; with Panc-1 (setting [4]) it was 530 ± 210 nM; in the assay on MiaPaCa-2 (setting [5]) it was 370 ± 150 nM.

In the case of `CC(C)(C)OC(=O)NCCOc1cc(NC(=O)c2cnccn2)c2ncccc2c1` [QN151, (2-{8-[(Pyrazine-2-carbonyl)amino]quinolin-6-yloxy}ethyl)carbamic acid tert-butyl ester], the IC50 is less than 1000 nM in assay [1], 9170 ± 760 nM in the assay on BxPC-3 (setting [3]), 9500 ± 500 nM in the assay on Panc-1 (setting [4]) and 870 ± 150 nM with MiaPaCa-2 (setting [5]).

Regarding `Cc1cnc(C(=O)Nc2cc(OCCNC(=O)OC(C)(C)C)cc3cccnc23)cn1` [QN152, (2-{8-[(5-Methylpyrazine-2-carbonyl)amino]quinolin-6-yloxy}ethyl)carbamic acid tert-butyl ester], the IC50 in assay [1] was less than 1000 nM; in the assay on BxPC-3 (setting [3]) it was 3670 ± 760 nM; in the assay with Panc-1 (setting [4]) it was 2170 ± 760 nM; in the assay on MiaPaCa-2 (setting [5]), 670 ± 120 nM.

Regarding `O=C(Nc1cccc2cccnc12)c1ncccn1` [QN567, Pyrimidine-2-carboxylic acid quinolin-8-ylamide], the 50% inhibitory concentration (IC50) is less than 1000 nM in assay [1]; more than 10000 nM in the assay on BxPC-3 (BXPC-3, read-out: IC50 Values BxPC-3); more than 10000 nM in the assay on Panc-1 (PANC-1, read-out: IC50 Values Panc-1); 330 ± 60 nM with MiaPaCa-2 (MIA PaCa-2, read-out: IC50 Values MiaPaCa-2, MTT assay, Mean ± SD, three independent experiments).

On to `O=C(Nc1ccc(Br)c2cccnc12)c1cnccn1` [QN618, Pyrazine-2-carboxylic acid (5-bromoquinolin-8-yl)amide], for which the IC50 is less than 1000 nM in assay [1], 7510 ± 1320 nM in the assay with BxPC-3 (setting [3]), 7020 ± 2920 nM in the assay on Panc-1 (setting [4]) and 750 ± 90 nM in the assay on MiaPaCa-2 (setting [5]).

With `O=C(Nc1cc(F)cc2cccnc12)c1cnccn1` [QN651, Pyrazine-2-carboxylic acid (6-fluoro-quinolin-8-yl)amide], the IC50 is less than 1000 nM in assay [1], more than 10000 nM in the assay on BxPC-3 (setting [3]), 670 ± 250 nM in the assay on Panc-1 (setting [4]) and 130 ± 60 nM in the assay on MiaPaCa-2 (setting [5]).

Regarding `Cc1cnc(C(=O)Nc2cc(F)cc3cccnc23)cn1` [QN652, 5-Methylpyrazine-2-carboxylic acid (6-fluoroquinolin-8-yl)amide], the IC50 was less than 1000 nM in assay [1], more than 10000 nM in the assay on BxPC-3 (setting [3]), 2120 ± 940 nM in the assay with Panc-1 (setting [4]) and 310 ± 160 nM with MiaPaCa-2 (setting [5]).

With `O=C(Nc1cc(F)cc2cccnc12)c1ncccn1` [QN658, Pyrimidine-2-carboxylic acid (6-fluoroquinolin-8-yl)amide], the IC50 was less than 1000 nM in assay [1], more than 10000 nM in the assay with BxPC-3 (setting [3]), 5330 ± 1530 nM with Panc-1 (setting [4]) and 300 ± 100 nM with MiaPaCa-2 (setting [5]).

For `Cc1ccc2cccc(NC(=O)c3ncccn3)c2n1` [QN660, Pyrimidine-2-carboxylic acid (2-methylquinolin-8-yl)amide], the IC50 in the assay on BxPC-3 (setting [3]), in the assay on Panc-1 (setting [4]) and with MiaPaCa-2 (setting [5]) was more than 10000 nM throughout.

Regarding `COc1cc(NC(=O)c2cnc(C)cn2)c2ncccc2c1` [QN663, 5-Methylpyrazine-2-carboxylic acid (6-methoxyquinolin-8-yl)amide], the IC50 in assay [1] is less than 1000 nM; in the assay with BxPC-3 (setting [3]), 6700 ± 600 nM; in the assay on Panc-1 (setting [4]), 830 ± 210 nM; in the assay on MiaPaCa-2 (setting [5]), 270 ± 150 nM.

As to `O=C(Nc1cc(Cl)cc2cccnc12)c1cnccn1` [QN792, N-(6-Chloroquinolin-8-yl)pyrazine-2-carboxamide], the IC50 is more than 10000 nM with BxPC-3 (setting [3]), 2700 ± 520 nM with Panc-1 (setting [4]) and 2830 ± 760 nM with MiaPaCa-2 (setting [5]).

With `Cc1cnc(C(=O)Nc2cc(Cl)cc3cccnc23)cn1` [QN793, N-(6-Chloroquinolin-8-yl)-5-methylpyrazine-2-carboxamide], the concentration for half-maximal inhibition (IC50) with BxPC-3 (setting [3]) came out at 5200 ± 300 nM; in the assay on Panc-1 (setting [4]), 1770 ± 250 nM; in the assay on MiaPaCa-2 (setting [5]), 1500 ± 500 nM.

Consider `O=C(Nc1cc(Cl)cc2cccnc12)c1ncccn1` [QN794, N-(6-Chloroquinolin-8-yl)pyrimidine-2-carboxamide], for which the IC50 in assay [1] is less than 1000 nM; with BxPC-3 (setting [3]) it was more than 10000 nM; in the assay with Panc-1 (setting [4]) it was 4670 ± 1530 nM; in the assay on MiaPaCa-2 (setting [5]) it was 800 ± 50 nM.

For `CC1=C(CC(=O)O)c2cc(F)ccc2/C1=C\c1ccc([S+](C)[O-])cc1` (stereo not drawn) [Sulindac], the “autophagy-related markers WIPI1, GABARAPL1 and LC3B” value in assay [2] (72 h treatment, western blotting) is recorded as “Accumulation”. In addition, the “protein levels of stress responsive markers HSPA5, DDIT3, ATF3 and GDF15” value in the assay with GRP78, CHOP, ATF3, GDF15 (72 h, western blotting) is given as “induced”. Further, the IC50 in the assay on MiaPaCa-2 (MIA PaCa-2, read-out: IC50 in MiaPaCa-2) was found to be 300000 nM.

Regarding `CN1CCN(CCCN2c3ccccc3Sc3ccc(Cl)cc32)CC1` [prochlorperazine], the activation of autophagy result in assay [2] is given as “robust activation of autophagy”. For the same molecule, the “induction of GRP78 and CHOP” value in the assay on GRP78, CHOP, ATF3, GDF15 (tested at IC50 value) was “most robust induction of GRP78 and CHOP”.

Turning to `CSc1ccc2c(c1)N(CCC1CCCCN1C)c1ccccc1S2` (stereo not drawn) [thioridazine], the activation of autophagy result in assay [2] is “robust activation of autophagy”.
